Measurements taken from patent US7238718B2, “Method for treating myolytic disease and method for screening antimyolytic agent” (Osaka Bioscience Institute, priority 2003, dated 2007).

How the values were obtained:
[1] = system: myolysis induced by bupivacaine hydrochloride in gastrocnemius; experiment: Myolysis model induced by bupivacaine hydrochloride, Evans' Blue fluorescence microscopy of gastrocnemius; type: in vivo, C57BL/6 mice; details: 10 mg/kg orally; 24 h after bupivacaine hydrochloride 0.5 w/v %, 0.1 ml; FIG. 1
Procedure: Effect of an H-PGDS inhibitor to myolysis was tested using a myolysis model induced by bupivacaine hydrochloride which is an experimental model for muscular dystrophy (Nonaka I, et al., Acta Neuropathol., 60:167–174, 1983). Bupivacaine hydrochloride (0.5 w/v %, 0.1 ml) was injected into gastrocnemius of C57BL/6 mice (K. K. Oriental Bio Service) (eight weeks old; male) to induce myolysis and, after 24 hours, Evans' Blue dye solution (1.0 w/v %) was intravenously injected from tail vein. After 30 minutes, they were killed by excessive anesthetization and perfused with physiological saline solution, gastrocnemius was excised and quickly frozen. The cryosection was prepared and then accumulated Evans' Blue was observed under a fluorescent microscope. Necrotic legion was enhanced by means of fluorescence.

[2] = system: myolysis induced by bupivacaine hydrochloride in gastrocnemius; experiment: Quantification of myolysis region by Evans' Blue extraction and absorbance (630 nm); type: in vivo, C57BL/6 mice
Procedure: Quantification of the degenerated region by necrosis shown in Example 1 was carried out. Evans' Blue was extracted from the freeze-dried gastrocnemius by formamide. After the extraction, absorbance of Evans' Blue (630 nm) was measured calorimetrically.

[3] = system: myolysis induced by bupivacaine hydrochloride in gastrocnemius; experiment: Nonoperative observation of necrotic lesion using X-ray CT with iopamidol; type: in vivo, mice; details: one day after bupivacaine hydrochloride; 15 min after iopamidol i.v.; FIG. 3
Procedure: Degenerated region was observed by a nonoperative manner using X-ray CT for experimental animals. N,N′-Bis[2-hydroxy-1-(hydroxymethyl)ethyl]-5-[(2S)-2-hydroxypropanoylamino]-2,4,6-triiodoisophthalamide (iopamidol), an X-ray contrast agent for urinary blood vessels, was intravenously injected from tail vein of mice after one day from the treatment with bupivacaine hydrochloride and a laminogram by an X-ray CT after 15 minutes is shown. A region with specific CT values which is noted in the laminogram of gastrocnemius decreased by administration of HQL-79. In the region where retention of the contrast agent is recognized, bleeding and edema as a result of muscular destruction are noted (refer to FIG. 3).

[4] = system: myolysis in mdx mice; experiment: Therapeutic effect in mdx mice (Duchenne's muscular dystrophy model), Evans' Blue retention; type: in vivo; details: continuously administered for two weeks; compared with vehicle group; FIG. 5
Procedure: HQL-79 was continuously administered for two weeks to mdx mice which is a model animal for Duchenne's muscular dystrophy (Bogdanovich S, et al., Nature, Nov. 28, 2002, 420(6914):418–21) […] and the effect of the HPGDS inhibitor to myolysis was tested. After two weeks from the initiation of the administration, an Evans' Blue dye solution (1.0 w/v %) was intravenously injected from tail vein. After one hour therefrom, the mice were killed by excessive anaesthetization and perfused with physiological saline solution, the gastrocnemius was excised and quickly frozen. The retention of Evans' Blue in the muscle was observed under a fluorescent microscope. Necrotic lesion was enhanced by means of fluorescence. In the mice to which HQL-79 was administered, retention of the dye (grayish white region) which is an index for myolysis decreased as compared with the group to which a vehicle was administered (refer to FIG. 5).

Structure (SMILES)	degenerated region by necrosis (Evans' Blue fluorescence) [1]	incorporation of Evans' Blue into gastrocnemius (absorbance 630 nm) ([2]; HQL-79 group of Example 1, formamide extraction, FIG. 2)	region with specific CT values in laminogram of gastrocnemius [3]	retention of Evans' Blue dye in muscle (index for myolysis) [4]	amount of Evans' Blue impregnated into the tissue (absorbance 630 nm) ([2]; 30 mg/kg orally, 1 h before and 18 h after bupivacaine hydrochloride 1 w/v %, 0.05 mL, read at 24 h, FIG. 6)
c1ccc(C(OC2CCN(CCCc3nnn[nH]3)CC2)c2ccccc2)cc1 [HQL-79, 4-benzhydryloxy-1-{3-(1H-tetrazol-5-yl)-propyl}piperidine]	degenerated region by necrosis became small	significantly decreased	decreased	decreased	–
O=C(O)CCn1c2c(c3ccccc31)C[C@H](NS(=O)(=O)c1ccc(F)cc1)CC2 [ramatroban, (+)-(3R)-3-(4-fluorobenzenesulfonamide)-1,2,3,4-tetrahydrocarbazole-9-propionic acid]	–	–	–	–	lowered
